Columns and labels:
[1] = biological target: T1, PrpC (2-methylcitrate synthase, Rv1131) (Mycobacterium tuberculosis, UniProt I6Y9Q3); assay: biochemical
T1 construct: full-length, C-terminal 6x-His tag

[2] = biological target: HsaAB (HsaA, of the two-component flavin-dependent hydroxylase) (Mycobacterium tuberculosis, UniProt P9WJA1); assay: biochemical
Chain of HsaAB (HsaA, of the two-component flavin-dependent hydroxylase) (P9WND9 whole entry): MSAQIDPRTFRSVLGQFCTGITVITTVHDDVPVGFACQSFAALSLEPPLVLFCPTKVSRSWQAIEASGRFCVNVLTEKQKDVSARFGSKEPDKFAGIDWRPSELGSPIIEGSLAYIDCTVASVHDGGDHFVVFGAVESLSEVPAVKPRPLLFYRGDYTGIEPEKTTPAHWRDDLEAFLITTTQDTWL
Chain of HsaAB (HsaA, of the two-component flavin-dependent hydroxylase) (P9WJA1 whole entry): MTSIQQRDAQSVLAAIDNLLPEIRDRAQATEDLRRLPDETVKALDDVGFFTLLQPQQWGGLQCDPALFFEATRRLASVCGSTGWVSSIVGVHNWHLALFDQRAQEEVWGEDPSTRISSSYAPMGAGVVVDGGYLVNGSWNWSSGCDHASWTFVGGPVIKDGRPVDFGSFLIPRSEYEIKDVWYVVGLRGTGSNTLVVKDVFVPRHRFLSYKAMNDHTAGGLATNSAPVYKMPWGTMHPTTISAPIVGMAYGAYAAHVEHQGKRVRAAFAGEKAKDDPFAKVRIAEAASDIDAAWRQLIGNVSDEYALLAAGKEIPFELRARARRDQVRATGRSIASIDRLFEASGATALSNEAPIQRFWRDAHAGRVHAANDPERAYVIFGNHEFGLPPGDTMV

T1 sequence (I6Y9Q3 whole entry): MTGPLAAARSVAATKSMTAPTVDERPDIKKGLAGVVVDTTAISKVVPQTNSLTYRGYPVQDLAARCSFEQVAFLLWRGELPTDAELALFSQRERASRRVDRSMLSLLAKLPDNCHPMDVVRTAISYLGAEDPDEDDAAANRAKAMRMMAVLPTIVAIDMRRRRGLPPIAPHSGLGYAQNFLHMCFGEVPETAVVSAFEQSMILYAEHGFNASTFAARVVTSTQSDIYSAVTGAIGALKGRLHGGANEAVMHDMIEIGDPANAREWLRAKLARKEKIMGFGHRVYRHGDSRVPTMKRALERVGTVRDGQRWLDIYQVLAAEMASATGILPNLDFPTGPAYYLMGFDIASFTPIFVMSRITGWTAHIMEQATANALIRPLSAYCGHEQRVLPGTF

Cc1nnc(NS(=O)(=O)c2ccc(NC(=O)c3cc(-c4ccc(Cl)cc4)oc3C(F)(F)F)cc2)s1 [V-13–009920, 5-(4-chlorophenyl)-N-(4-(N-(5-methyl-1,3,4-thiadiazol-2-yl)sulfamoyl)phenyl)-2-(trifluoromethyl)furan-3-carboxamide]
IC50 [1]: 4 ± 1.1 µM

Cc1noc(C)c1C(=O)Nc1nnc(-c2ccccc2)s1 [V-13–011503, 3,5-dimethyl-N-(5-phenyl-1,3,4-thiadiazol-2-yl)-1,2-oxazole-4-carboxamide]
IC50 [2]: 11 ± 2 µM

Cc1cc(=O)n2[nH]c(-c3ccc(F)cc3)nc2n1 [V-13–012725, 2-(4-fluorophenyl)-5-methyl-1H-[1,2, 4]triazolo[1,5-a]pyrimidin-7-one]
IC50 [2]: 5 ± 0.8 µM

From PMC4335503, “Novel Inhibitors of Cholesterol Degradation in Mycobacterium tuberculosis Reveal How the Bacterium’s Metabolism Is Constrained by the Intracellular Environment” (PLoS Pathogens, 2015)
